Test results: patent US9895342B2, “Cannabinoids for use in the treatment of neuropathic pain” (GW Pharma Limited, priority 2011, dated 2018)

Columns and labels:
SNI mice [1] = test: Mechanical allodynia (Dynamic Plantar Aesthesiometer, paw withdrawal threshold) in spared nerve injury mice; format: in vivo; settings: for MECHANICAL WITHDRAWAL THRESHOLD: SNI mice; for overall efficacy, mechanical withdrawal: both of the doses tested (2.5 and 5 mg/kg); for ability to treat neuropathic pain compared with CBD: mechanical withdrawal data
Experimental: (§1) Peripheral neuropathic pain is produced by multiple etiological factors that initiate a number of diverse mechanisms at different sites and in different disease states. Spared nerve injury (SNI) consists of partial ligation and transaction of the sciatic nerve which evolves in neuropathic pain whose typical manifestations are represented by thermal hyperalgesia and tactile allodynia.
(§2) Chronic pain symptoms are measured through changes in thermoceptive responses (which is indicative of thermal hyperalgesia) using Plantar Test Apparatus (Ugo Basile, Varese, Italy) and in mechanical paw withdrawal threshold (which is indicative of mechanical allodynia) by a Dynamic Plantar Aesthesiometer (Ugo Basile, Varese, Italy). Nociceptive responses were measured before and after surgery in groups of mice differently treated (vehicle or drugs different combinations).
(§3) The cannabinoids tested were CBG, CBC, CBDV, and THCV. […] The cannabinoids were prepared from whole plant extracts of cannabis plants which had been purified. The cannabinoids were dissolved in ringer/0.5% dimethyl sulfoxide (DMSO), for intraperitoneal (i.p.) administration.
(§4) Male CD-1 mice (35-40 g) were housed, 3 per cage, under controlled illumination (12:12 h light:dark cycle; light on 06.00 h) and environmental conditions (room temperature 20-22° C., humidity 55-60%) for at least 1 week before the commencement of experiments. Mouse chow and tap water were available ad libitum. The experimental procedures were approved by the Ethic Committee of the Second University of Naples. Animal care was in compliance with the IASP and European Community (E.C. L358/1 18/12/86) guidelines on the use and protection of animals in experimental research. All efforts were made to minimize animal suffering and to reduce the number of animals used.
(§5) Behavioural testing was performed before surgery to establish a baseline for comparison with post-surgical values. Mononeuropathy was induced according to the method of Bourquin and Decosterd (2006).
(§6) Mice were anaesthetized with sodium pentobarbital (60 mg/kg i.p.). The right hindlimb was immobilized in a lateral position and slightly elevated. Incision was made at mid-thigh level using the femur as a landmark. The sciatic nerve was exposed at mid-thigh level distal to the trifurcation and freed of connective tissue; the three peripheral branches (sural, common peroneal, and tibial nerves) of the sciatic nerve were exposed without stretching nerve structures.
(§7) Both tibial and common peroneal nerves were ligated and transacted together. A micro-surgical forceps with curved tips was delicately placed below the tibial and common peroneal nerves to slide the thread (5.0 silk, Ethicon, Johnson, and Johnson Intl, Brussels, Belgium) around the nerves. A tight ligation of both nerves was performed. The sural nerve was carefully preserved by avoiding any nerve stretch or nerve contact with surgical tools. Muscle and skin were closed in two distinct layers with silk 5.0 sutures.
(§8) Intense, reproducible and long-lasting thermal hyperalgesia and mechanical allodynia-like behaviors are measurable in the non-injured sural nerve skin territory. The SNI model offers the advantage of a distinct anatomical distribution with an absence of co-mingling of injured and non-injured nerve fibers distal to the lesion such as the injured and non-injured nerves and territories can be readily identified and manipulated for further analysis (i.e. behavioral assessment).
(§9) The sham procedure consisted of the same surgery without ligation and transection of the nerves.
(§10) The groups of mice were divided as follows, each cannabinoid tested has its own group of mice:
(§11) The cannabinoids were dosed daily for 14 days. Doses for all cannabinoids tested were: 2.5 and 5.0 mg/Kg. Vehicle solution was 0.5% DMSO in ringer solution.
Mechanical allodynia was measured by using Dynamic Plantar Anesthesiometer (Ugo Basile, Varese, Italy). […]

SNI mice [2] = test: Thermal hyperalgesia (Plantar Test Apparatus, paw withdrawal latency) in spared nerve injury mice; format: in vivo; settings: for dose-dependence of effect on thermal withdrawal latency: 2.5 vs 5 mg/kg; for ability to treat neuropathic pain compared with CBD: thermal withdrawal data
Experimental: as §1, §2, §3, §4, §5, §6, §7, §8, §9, §10, §11
Thermal hyperalgesia was evaluated by using a Plantar Test Apparatus (Ugo Basile, Varese, Italy). […]

[3] = system: chronic constriction injury of the rat sciatic nerve; settings: administered as a purified compound; Costa et al., 2004; cited from earlier work
[4] = SNI mice, 2.5 mg/kg i.p. daily, DAY 3
[5] = SNI mice, 2.5 mg/kg i.p. daily, DAY 7
[6] = SNI mice, 2.5 mg/kg i.p. daily, DAY 14
[7] = SNI mice, 5 mg/kg i.p. daily, DAY 3
[8] = SNI mice, 5 mg/kg i.p. daily, DAY 7
[9] = SNI mice, 5 mg/kg i.p. daily, DAY 14

SMILES: CCCc1cc(O)c2c(c1)OC(C)(C)[C@@H]1CCC(C)=C[C@@H]21 [THCV, tetrahydrocannabivarin]
- MECHANICAL WITHDRAWAL THRESHOLD (SNI mice [1]; 2.5 mg/kg i.p. daily, DAY 3): 3.0 g
- MECHANICAL WITHDRAWAL THRESHOLD (SNI mice [1]; 2.5 mg/kg i.p. daily, DAY 7): 6.2 g
- MECHANICAL WITHDRAWAL THRESHOLD (SNI mice [1]; 2.5 mg/kg i.p. daily, DAY 14): 7.5 g
- MECHANICAL WITHDRAWAL THRESHOLD (SNI mice [1]; 5 mg/kg i.p. daily, DAY 3): 3.2 g
- MECHANICAL WITHDRAWAL THRESHOLD (SNI mice [1]; 5 mg/kg i.p. daily, DAY 7): 8.5 g
- MECHANICAL WITHDRAWAL THRESHOLD (SNI mice [1]; 5 mg/kg i.p. daily, DAY 14): 9.8 g
- overall efficacy, mechanical withdrawal (SNI mice [1]): good efficacy
- ability to treat neuropathic pain compared with CBD (SNI mice [1]): superior to CBD
- overall efficacy, thermal withdrawal (SNI mice [2]; 2.5 mg/kg): good efficacy
- thermal withdrawal latency, course over time (SNI mice [2]; 2.5 mg/kg, day 7 to day 14): large increase at the day 7 time point which then decreases after a further 7 days
- overall efficacy, thermal withdrawal (SNI mice [2]; 5.0 mg/kg): most effective
- THERMAL WITHDRAWAL LATENCY (SNI mice [2]; 5.0 mg/kg, 14 days): large increase
- dose-dependence of effect on thermal withdrawal latency (SNI mice [2]): do not appear to be dose-dependent
- THERMAL WITHDRAWAL LATENCY (SNI mice [2]; [4]): 3.8 s
- THERMAL WITHDRAWAL LATENCY (SNI mice [2]; [5]): 9.8 s
- THERMAL WITHDRAWAL LATENCY (SNI mice [2]; [6]): 7.6 s
- THERMAL WITHDRAWAL LATENCY (SNI mice [2]; [7]): 3.9 s
- THERMAL WITHDRAWAL LATENCY (SNI mice [2]; [8]): 10.5 s
- THERMAL WITHDRAWAL LATENCY (SNI mice [2]; [9]): 11.9 s
- ability to treat neuropathic pain compared with CBD (SNI mice [2]): superior to CBD

SMILES: C=C(C)[C@@H]1CCC(C)=C[C@H]1c1c(O)cc(CCC)cc1O [CBDV, cannabidivarin]
- mechanical withdrawal latency (SNI mice [1]; 2.5 mg/kg, day 3): dramatic increase
- MECHANICAL WITHDRAWAL THRESHOLD (SNI mice [1]; 2.5 mg/kg i.p. daily, DAY 3): 6.8 g
- MECHANICAL WITHDRAWAL THRESHOLD (SNI mice [1]; 2.5 mg/kg i.p. daily, DAY 7): 7.0 g
- MECHANICAL WITHDRAWAL THRESHOLD (SNI mice [1]; 2.5 mg/kg i.p. daily, DAY 14): 7.8 g
- MECHANICAL WITHDRAWAL THRESHOLD (SNI mice [1]; 5 mg/kg i.p. daily, DAY 3): 6.7 g
- MECHANICAL WITHDRAWAL THRESHOLD (SNI mice [1]; 5 mg/kg i.p. daily, DAY 7): 6.6 g
- MECHANICAL WITHDRAWAL THRESHOLD (SNI mice [1]; 5 mg/kg i.p. daily, DAY 14): 7.7 g
- overall efficacy, mechanical withdrawal (SNI mice [1]): highest mechanical withdrawal latency of all the cannabinoids
- ability to treat neuropathic pain compared with CBD (SNI mice [1]): superior to CBD
- overall efficacy, thermal withdrawal (SNI mice [2]; 2.5 mg/kg): good efficacy
- overall efficacy, thermal withdrawal (SNI mice [2]; 5.0 mg/kg): most effective
- THERMAL WITHDRAWAL LATENCY (SNI mice [2]; 5.0 mg/kg, 14 days): large increase
- dose-dependence of effect on thermal withdrawal latency (SNI mice [2]): dose-dependent effects were observed
- THERMAL WITHDRAWAL LATENCY (SNI mice [2]; [4]): 3.8 s
- THERMAL WITHDRAWAL LATENCY (SNI mice [2]; [5]): 6.4 s
- THERMAL WITHDRAWAL LATENCY (SNI mice [2]; [6]): 6.5 s
- THERMAL WITHDRAWAL LATENCY (SNI mice [2]; [7]): 4.0 s
- THERMAL WITHDRAWAL LATENCY (SNI mice [2]; [8]): 7.2 s
- THERMAL WITHDRAWAL LATENCY (SNI mice [2]; [9]): 11.0 s
- ability to treat neuropathic pain compared with CBD (SNI mice [2]): superior to CBD

SMILES: C=C(C)[C@@H]1CCC(C)=C[C@H]1c1c(O)cc(CCCCC)cc1O [CBD, cannabidiol, reference compound]
- relief of neuropathic pain [3]: can partially relieve neuropathic pain
- mechanical withdrawal, course over time (SNI mice [1]; 5.0 mg/kg, day 7 to day 14): large increase at day 7; however this latency decreased again at the 14 day time point
- MECHANICAL WITHDRAWAL THRESHOLD (SNI mice [1]; 2.5 mg/kg i.p. daily, DAY 3): 2.2 g
- MECHANICAL WITHDRAWAL THRESHOLD (SNI mice [1]; 2.5 mg/kg i.p. daily, DAY 7): 4.8 g
- MECHANICAL WITHDRAWAL THRESHOLD (SNI mice [1]; 2.5 mg/kg i.p. daily, DAY 14): 5.2 g
- MECHANICAL WITHDRAWAL THRESHOLD (SNI mice [1]; 5 mg/kg i.p. daily, DAY 3): 5.0 g
- MECHANICAL WITHDRAWAL THRESHOLD (SNI mice [1]; 5 mg/kg i.p. daily, DAY 7): 8.6 g
- MECHANICAL WITHDRAWAL THRESHOLD (SNI mice [1]; 5 mg/kg i.p. daily, DAY 14): 5.3 g
- overall efficacy, mechanical withdrawal (SNI mice [1]): relatively ineffective
- overall efficacy, thermal withdrawal (SNI mice [2]; 2.5 mg/kg): relatively ineffective
- THERMAL WITHDRAWAL LATENCY (SNI mice [2]; 5.0 mg/kg, day 3): able to increase the amount of time before the animal withdrew its paw
- dose-dependence of effect on thermal withdrawal latency (SNI mice [2]): do not appear to be dose-dependent
- THERMAL WITHDRAWAL LATENCY (SNI mice [2]; [4]): 3.5 s
- THERMAL WITHDRAWAL LATENCY (SNI mice [2]; [5]): 4.2 s
- THERMAL WITHDRAWAL LATENCY (SNI mice [2]; [6]): 5.6 s
- THERMAL WITHDRAWAL LATENCY (SNI mice [2]; [7]): 5.8 s
- THERMAL WITHDRAWAL LATENCY (SNI mice [2]; [8]): 7.0 s
- THERMAL WITHDRAWAL LATENCY (SNI mice [2]; [9]): 7.5 s
